Test results as given in paper PMC9862186 (International Journal of Molecular Sciences, 2023).
Read-outs that look alike come from different tables or passages of the source.

Legend:
[1] = in vivo; conditions: male, Wistar, rat, in vivo, iv
Experimental: (§1) A saline solution (0.9% NaCl) was added to a mixture of cinnamaldehyde (density = 1.05 g/mL) and Cremophor® RH 40 (1:1 v/v) in order to obtain a 12.5 mg/mL cinnamaldehyde emulsion in the presence of ethanol (10% of final volume). A group (n = 4) of male Wistar rats (200–250 g) fasted for 24 h was anesthetized during the experimental period and received 0.4 mL via a femoral intravenous infusion (rate = 0.2 mL/min; 2 min) of 12.5 mg/mL cinnamaldehyde emulsion (20 mg/kg cinnamaldehyde dose).
(§2) At the end of the infusions and at fixed time points, CSF samples (50 μL) were withdrawn and blood samples (100 μL) were collected. The CSF was withdrawn using the cisternal puncture method described by van den Berg et al., which requires a single needle stick and allows the collection of serials (40–50 μL) CSF samples that are virtually blood-free. A total volume of about a maximum of 150 μL of CSF/rat (i.e., three 50 μL samples/rat) was collected during the experimental session, choosing the time points (n = 3–5, taking into account a maximum of three collections per rat) in order to allow the restoring of the CSF physiological volume.
The samples were centrifuged at 12,500× g for 5 min, then about 300 μL of supernatant were withdrawn and further centrifuged. […] As a control, a blood sample (100 μL) was collected by each rat before the administrations of the drugs. The control samples were immediately added to 300 μL of ice-cold CH3CN in the absence of internal standard, then treated as described above.
For cinnamaldehyde analysis the blood samples were hemolyzed immediately after their collection with 500 μL of ice-cold water, and then 50 μL of 10% sulfosalicylic acid and 50 μL of internal standard (100 μM carbazole dissolved in a water-methanol mixture 50:50 v/v) was added. The samples were extracted twice with 1 mL of water-saturated ethyl acetate, and, after centrifugation at 12,500× g for 10 min, the organic layer was reduced to dryness under a mild nitrogen stream at room temperature. Then, 200 μL of a water-acetonitrile mixture (50:50 v/v) were added, and after centrifugation, 10 μL were analyzed via HPLC (see below) for cinnamaldehyde detection. As a control, a blood sample (100 μL) was collected by each rat before the administration of the drug. The control samples were treated as described above in the absence of internal standard.
(§3) In particular, all the AUC values referred to the bloodstream were calculated by the trapezoidal method within the last time point detected, and the remaining area was obtained as the ratio between the compound concentration detected at the last time point and the elimination constant (kel), which was obtained from the slope of the semilogarithmic plots (−slope × 2.3). The clearance (Cl) and distribution volume (Vd) values were calculated according to the non-compartmental model as the ratios “dose/AUC” and “Cl/kel”, respectively, where kel is the elimination constant obtained by the slope of semilogarithmic plot.
(§4) The chromatographic apparatus consisted of a modular system (model LC-10 AD VD pump and model SPD-10A VP variable wavelength UV−vis detector; Shimadzu, Kyoto, Japan) and an injection valve with 20 μL sample loop (model 7725; Rheodyne, IDEX, Torrance, CA, USA). Separations were performed at room temperature on a 5 μm Hypersil BDS C-18 column (150 mm × 4.6 mm i.d.; Alltech Italia Srl, Milan, Italy) equipped with a guard column packed with the same Hypersil material. The volume injection was 10 μL. Data acquisition and processing were performed on a personal computer using CLASS-VP Software, version 7.2.1 (Shimadzu Italia, Milan, Italy).
The detector was set at 205 nm.

[2] = in vivo; conditions: for Kp at 10 min: R: ratio of concentration between CSF and bloodstream at Tmax
Experimental: as §1, §2, §4
For CSF simulation, standard aliquots of balanced solution (Dulbecco’s phosphate buffer saline—DPBS—without calcium and magnesium) in the presence of 0.45 mg/mL BSA were used.

[3] = in vivo; conditions: Wistar, rat; for bioavailability: F: absolute bioavailability
Experimental: (§5) Each type of formulation was administered to a group of four rats.
(§6) In particular, 4.2 mL of EU-CD formulation were administered to rats (500 mg/kg dose).
(§7) In particular, 320 μL of EU-SL formulation were administered to rats (500 mg/kg dose).
(§8) Free cinnamaldehyde (100 mg) was orally administered by gavage to rats kept fasting since 24 h. In particular, 95 μL of cinnamaldehyde (density = 1.05 g/mL) were dissolved in 905 μL of corn oil and administered to rats (400 mg/kg dose).
(§9) The solid AC-GN formulation (14% w/w cinnamaldehyde) was mixed with palatable food in order to induce their oral intake by the rats kept fasting since 24 h. In particular, the rats assumed a dose of 100 mg of cinnamaldehyde (400 mg/kg) contained in 714 mg of AC-GN.
(§10) After the administrations, blood (100 μL) and CSF samples (50 μL) were serially collected at fixed time points from each rat and treated as described above in order to quantify the compounds.
as §3

[4] = in vivo; conditions: rat, po
Experimental: as §2, §5, §6, §7, §8, §9, §10

[5] = tested on: rats; conditions: cited from earlier work
[6] = rat, in vivo, cited from earlier work
[7] = tested on: PC12 cells; experiment: Dopamine release from neuronal differentiated PC12 cells (ELISA); type: cell-based, rat; conditions: 60 mM K^+, 5 min, control stimulus; baseline 393 ± 12 pg/mL
Experimental: PC12 cell line (RRID:CVCL_0481), derived from rat adrenal gland pheochromocytoma, was a kind gift from Dr Federica Brugnoli from the Department of Translational Medicine, University of Ferrara, Ferrara (Italy). The cells were grown in RPMI-1640 (HiGlutaXL) medium (Microtech, Naples, Italy), supplemented with 100 µg/mL streptomycin and 100 IU/mL penicillin, 10% horse serum (HS), and 5% fetal bovine serum (FBS). PC12 cells were gently removed from the 4 µg/cm^2 collagen IV-coated flask with a rubber scraper, transferred as cell suspension into a Falcon tube and resuspended through a sterile tip to avoid any clumping, then split into separate flasks twice weekly. To differentiate neuronal phenotypes, PC12 cells were seeded in 4 µg/cm^2 collagen IV-coated 12-well plates at a density of 5000 cells/well, and they were then left to adhere to the well for 24 h. […] All the proliferative and differentiated cultures were maintained at 37 °C in a humidified 5% CO2 atmosphere.
PC12 cells differentiated to neuronal-like phenotype in collagen IV-treated 12-well plates, were first synchronized all to the same circadian phase and cell cycle by a serum shock (50% HS and 50% DMEM HiGlutaXL) for 2 h at 37 °C [49] to achieve a synchronous release of dopamine. Synchronization medium was then aspirated off, cells were washed with 3 × 1 mL and equilibrated for 15 min at 37 °C in 1 mL of Krebs Ringer HEPES (KRH) physiological buffer, following the recipe of Mount et al. (25 mM HEPES/Tris, pH 7.4, 1.2 mM KH2PO4, 125 mM NaCl, 4.8 mM KCl, 1.2 mM MgSO4, 2.2 mM CaCl2, 5.6 mM glucose, 1.0 mM ascorbic acid, 10 µM pargyline, 1.0 µM nomifensine). […] To remove cell debris, all samples of 1 mL incubation KRH at the end of treatments were centrifuged at 1000× g for 20 min at 4 °C and stored at −20 °C until dopamine levels were determined by ELISA assay.
Dopamine levels in 1 mL incubation KRH buffer were detected by means of an ELISA assay, based on the […] ELISA principle for detection of dopamine, following manufacturer’s instructions (IBL International, Hamburg, Germany–catalog no: RE59161; purchased from Tecan Italia S.r.I, Milan, Italy). After the substrate reaction, the intensity of the developed color was proportional to the amount of dopamine, detected at 450 nm using a microplate reader spectrophotometer (Sunrise® Microplate Reader, Tecan Trading AG, Männedorf, Switzerland). Results of samples were determined directly using the standard curve. Results are presented as mean ± SE values of four independent experiments. Data were plotted and analyzed with GraphPad software (Prism, version 7.0, San Diego, CA, USA).

[8] = tested on: PC12 cells; conditions: cited from earlier work
[9] = male, Wistar, rat, in vivo, iv, 20 mg/kg

O=C/C=C/c1ccccc1 [Cinnamaldehyde, cinnamaldehyde]
Vd [1]: 1.32 ± 0.19 L/kg
clearance [1]: 39.5 ± 1.7 mL/min/kg
half-life [1]: 23.1 ± 1.6 min
AUC ([2]; male, Wistar, rat, in vivo, iv): 1610 ng·h/mL
AUC [2, 9]: 1610 ng·h/mL
Cmax [2, 9]: 2040 ± 360 ng/mL
Kp at 10 min ([2]; male, Wistar, rat, in vivo, iv, rat, iv, 10 min from the end of infusion): 0.156 ± 0.038
time within which CSF concentrations decreased to zero or near to zero ([2]; rat CSF, iv 20 mg/kg): ≤ 75 min
R: ratio of concentration between CSF and bloodstream at Tmax ([2]; rat, iv, 10 min from the end of infusion): 0.16 ± 0.04
Tmax: time of Cmax in the bloodstream [3]: 40 min
F: absolute bioavailability ([3]; po): 7.33 ± 0.37%
RB: relative bioavailability ([3]; po): 100%
bioavailability ([3]; po): 7%
AUC in CSF to last time of detection [4]: 0 µg·min/mL
Tmax: time of Cmax in CSF [4]: 0 h
oral LD50 ([5]; oral): about 3 g/kg
intravenous dose known to induce toxicity ([5]; rats, iv): 25 mg/kg
intravenous dose that appears lethal ([5]; rats, iv): 30 mg/kg
C0 ([6]; iv, 20 mg/kg): about 0.5 μg/mL
C0 ([6]; iv, 25 mg/kg): about 20 mg/mL
F (oral bioavailability) ([6]; po): less than 20%

C=C(C)[C@H]1CC=C(C)CC1 [D-Limonene, D-limonene]
Cl: clearance [1]: 284 ± 10 mL·min/kg
Vd [1]: 5.52 ± 0.558 L/kg
half-life [1]: 12.4 ± 0.9 min
clearance ([1]; Cl: clearance): 284 ± 10.4 mL/min/kg
detection in the CSF of rats after intravenous administration ([2]; iv 100 mg/kg, within 90 min after the end of infusion): not detected
AUC in CSF from the end of infusion to last time of detection ([2]; male, Wistar, rat, in vivo, iv): 0 µg·min/mL
Kp at 10 min ([2]; male, Wistar, rat, in vivo, iv): 0
Tmax: time of Cmax in the bloodstream [3]: 30 min
F: absolute bioavailability ([3]; po): 7.04 ± 0.96%
bioavailability ([3]; po): 7%
AUC in CSF to last time of detection [4]: 0 µg·min/mL
Tmax: time of Cmax in CSF [4]: 0 h
C0 ([6]; iv, 200 mg/kg): higher than 80 μg/mL
terminal t1/2 ([6]; iv, 200 mg/kg): 280 min
Cmax ([6]; po, 75 mg/kg): ~300 ng/mL
Cmax ([6]; po, 200 mg/kg): about 11 μg/mL

[Cl-].[K+] [K^+, reference compound]
dopamine release [7]: 4340 ± 265 pg/mL

Oc1ccc(/C=C/c2cc(O)cc(O)c2)cc1 [resveratrol]
most effective concentration in increasing the viability of PC12 cells [8]: 25 µM
